Oligonucleotides are written 5' to 3', each unit as a sugar letter and its base; * is a phosphorothioate linkage, no mark a phosphodiester; rarer units and linkages stand in square brackets, end groups in braces. Plain capitals give the bases only. d = 2'-deoxy (DNA)
Key:
[1] = system: acpP::gfp reporter transcript; test: In vitro translation (PURExpress) and anti-GFP western blot; format: biochemical, Salmonella enterica; set-up: key to Inhibition of translation in vitro: -: Effect strength is represented by additional (+) signs.; Effect strength is represented by additional (+) signs.; ++: Effect strength is represented by additional (+) signs.; +++: Effect strength is represented by additional (+) signs; conditions: unconjugated ASO; for GFP Expression (%): RNA 100 nM, 2 h 37 °C, relative to water control; for Inhibition of translation in vitro: summary grade; for Inhibition of in vitro translation of acpP::gfp (in words): western blot of AcpP-GFP fusion protein
Description: For the generation of target RNA::gfp fusion constructs, we used a previously established protocol ([31]) and the oligonucleotides JVO-19760/JVO-19761 (Supplementary Table 1) to amplify the genomic region spanning nucleotides –40 to + 51 relative to the translational start codon of acpP. The sense oligonucleotide was fused to a T7 promoter sequence for subsequent transcription of the final fusion construct in vitro. The antisense oligonucleotide contained a 30 nt overlapping region with gfp for subsequent fusion PCR with full length gfp (pXG-10; JVO-19762/JVO-19763) (Supplementary Table 1). The PCR products were purified with NucleoSpin Gel and PCR Clean-up (Macherey-Nagel) according to the manufacturer’s instructions and DNA concentration was quantified with a NanoDrop spectrophotometer (A260 nm).
PCR products were used for T7 RNA polymerase-driven transcription in vitro using the MEGAscript T7 kit (Ambion/Thermo Scientific), according to the manufacturer’s instructions and analogous to our previous publication ([31]). The concentration of the RNA solution was quantified with Qubit (Fisher Scientific) and the expected product size and RNA integrity was verified on a 6% PAA, 7 M urea gel.
For in vitro translation of target RNA::gfp fusion constructs, the PURExpress® In Vitro Protein Synthesis Kit (New England Biolabs, E6800L) was used as described previously ([31]). Briefly, the final volume of each in vitro translation reaction was set to 10 µL. 1µL of different concentrations of ASOs ranging from 10 µM to 0.625 µM were added to 1 µL of in vitro transcribed heat-denatured RNA (1µM) to adjust the final RNA concentration to 100 nM. The mixtures were pre-incubated at 37 °C for 5 min. Then 4 µL of Solution A and 3 µL of Solution B were added to the pre-annealed mixtures. After 2 h at 37 °C, protein samples were denatured in 1x reducing protein loading buffer (62.6 mM Tris–HCl pH 6.8, 2 % SDS, 0.1 mg/mL bromphenol blue, 15.4 mg/mL DTT, 10 % glycerol) at 95 °C for 5 min.
To visualise in vitro translated proteins, samples were separated on SDS-PAA (12 % PAA) gels, with subsequent semi-dry western blot transfer on polyvinylidene fluoride (PVDF) membranes. Membranes were blocked with 10% skim milk (in 1x TBS-T) for 1 h and probed with anti-GFP antibody (1:1,000; Sigma-Aldrich) in 5 % skim milk (in 1x TBS-T) overnight at 4 °C. After washing in 1x TBS-T and incubation with an HRP-conjugated secondary antibody (1:5,000; ThermoScientific) in 1x TBS-T, the membrane was incubated with developing solution kit (Amersham™ ECL Select™ Western Blotting Detection Reagent) and protein levels were detected using an ImageQuant LAS 500 (GE Healthcare Life Sciences). Images were processed and band intensities quantified using ImageJ. Protein bands were normalized to the water control.

Salmonella periplasm = test: MALDI-TOF analysis of ASO-peptide conjugate uptake; format: cell-based; set-up: key: -: Effect strength is represented by additional (+) signs.; Effect strength is represented by additional (+) signs.; ++: Effect strength is represented by additional (+) signs.; +++: Effect strength is represented by additional (+) signs; conditions: summary grade; ASO conjugated to the carrier peptide
Protocol: The experiments were performed by modifying previously published protocols ([29]). From an overnight culture of Salmonella, a second culture was inoculated (1:100) and grown to OD600 of 0.5 (corresponding to ∼2×10^8 cfu/mL). These bacterial cells was washed twice in MHB and resuspended in 95 µl of MHB with an additional incubation at 37°C for 5-10 min. Sterile ASO-peptide conjugates were prepared at concentrations of 200 µM. 5 µl of the 200 µM working solutions were added to 95 µl of bacteria in culture media, leading to a final concentration of the compounds of 10 µM. 5 µl of H2O was added as a negative control. The tubes were incubated at 37°C for 15 min with shaking at 300 rpm. Subsequently, they were centrifuged at 8,000 x g for 5 min at 4 °C. The supernatant was aspirated and the pellet was washed with 0.01 M Tris-HCl before being resuspended in 200 µl of 0.01M Tris-HCl containing 0.5 M Sucrose, 150 µg/ml lysozyme, 10 mM EDTA and incubated at 37 °C overnight. These tubes were then centrifuged at 2,000 x g at 4°C for 10 min. The supernatant obtained represents the periplasm. The pellet containing spheroplasts was gently washed with 0.01 M Tris-HCl containing 0.5 M Sucrose and resuspended in 20 ml of B-PER™ Bacterial Protein Extraction Reagent (Thermo Fischer Scientific) for 1 h. After this, the spheroplasts were subjected to sonication (20kHz for 2×10 s), incubated on ice for 5 min and centrifuged at 20,000 x g for 30 min at 4 °C. The supernatant represents the cytoplasm. Both the periplasm and cytoplasm fragments were then mixed with 2, 6-Dihydroxyacetophenone (DHAP) in ACN 1:1, spotted on a MALDI plate and analyzed for MALDI-TOF-MS in a Bruker DaltonicsUltrafleXtreme Instrument. The experiment was performed two times and data of one representative experiment are shown.

Row | Substance | GFP Expression (%) ([1]; acpP-RNA : ASO 1 : 0.625) | GFP Expression (%) ([1]; acpP-RNA : ASO 1 : 1.25) | GFP Expression (%) ([1]; acpP-RNA : ASO 1 : 2.5) | GFP Expression (%) ([1]; acpP-RNA : ASO 1 : 5) | GFP Expression (%) ([1]; acpP-RNA : ASO 1 : 10) | Inhibition of translation in vitro [1] | Uptake inside bacteria (MS) (Salmonella periplasm) | Inhibition of in vitro translation of acpP::gfp (in words) [1]
1 | DNA-PTO: 10mer phosphorothioate-modified DNA antisense oligomer, sequence CTCATACTCT, targeting acpP (antisense dC*dT*dC*dA*dT*dA*dC*dT*dC*dT) | 110.7% | 106.7% | 104.6% | 96.5% | 96.3% | - | - | 
2 | LNA: 10mer 2'-4'-locked RNA antisense oligomer, sequence CTCATACTCT, targeting acpP (all LNA, backbone and methylation of C not given here) | 97.8% | 38.1% | 8.0% | 6.5% | 4.5% |  | - | substantially blocking in vitro translation of acpP::gfp at 1.25x molar excess
3 | PMO: 10mer phosphorodiamidate morpholino antisense oligomer, sequence CTCATACTCT, targeting acpP (all phosphorodiamidate morpholino (PMO)) | 117.0% | 104.6% | 92.7% | 60.4% | 28.3% |  |  | 
4 | PNA: 10mer peptide nucleic acid antisense oligomer, sequence CTCATACTCT, targeting acpP (all peptide nucleic acid (PNA)) | 106.8% | 85.9% | 13.0% | 5.7% | 5.5% |  |  | substantially blocking in vitro translation of acpP::gfp at 1.25x molar excess
5 | RNA-F: 10mer 2'-fluorinated RNA antisense oligomer, sequence CTCATACTCT, targeting acpP (all 2'-fluoro, backbone and T or U not given here) | 96.1% | 97.5% | 85.0% | 69.5% | 58.3% |  | - | 
6 | RNA-MOE: 10mer 2'-methoxyethylated RNA antisense oligomer, sequence CTCATACTCT, targeting acpP (all 2'-MOE, backbone and methylation of C not given here) | 88.5% |  | 5.1% | 3.3% | 3.4% |  | - | substantially blocking in vitro translation of acpP::gfp at 1.25x molar excess
7 | RNA-OMe: 10mer 2'-methylated RNA antisense oligomer, sequence CTCATACTCT, targeting acpP (all 2'-O-methyl, backbone and T or U not given here) | 91.2% | 100.6% | 90.2% | 89.0% | 83.7% | + | - | 
